The target of assay [1] is Beta Secretase enzyme (BACE) (Homo sapiens, UniProt P56817). The experiment in a line: In vitro enzymatic BACE FRET (fluorescence resonance energy transfer) assay.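 Note: fluorescence read after 1 h with 50 nM quenched peptide substrate spanning the BACE cleavage site, in pH 4.2 acetate buffer containing 10% DMSO and nonionic detergent.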 The note with it: BACE enzyme FRET assay; read-out: BACE1 FRET assay (IC50). Format: biochemical.
Assay [2] relates to Aβ40 in conditioned medium of cells stably expressing Amyloid Precursor Protein (APP). The experiment in a line: In vitro BACE cell-based assay (Aβ40 in conditioned medium, sandwich ELISA).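 Note: compounds added as a dilution series, secreted peptide quantified by europium time-resolved fluorescence readout, potency fitted from percent of control versus compound concentration.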 Conditions: cell-based assay, read-out: HEK cell assay (IC50).
Setting [3] is: Homo sapiens, HEK293, HEK cells.

Read-outs that look alike come from different tables or passages of the source.

Beta Secretase enzyme (BACE), sequence (P56817 46-501): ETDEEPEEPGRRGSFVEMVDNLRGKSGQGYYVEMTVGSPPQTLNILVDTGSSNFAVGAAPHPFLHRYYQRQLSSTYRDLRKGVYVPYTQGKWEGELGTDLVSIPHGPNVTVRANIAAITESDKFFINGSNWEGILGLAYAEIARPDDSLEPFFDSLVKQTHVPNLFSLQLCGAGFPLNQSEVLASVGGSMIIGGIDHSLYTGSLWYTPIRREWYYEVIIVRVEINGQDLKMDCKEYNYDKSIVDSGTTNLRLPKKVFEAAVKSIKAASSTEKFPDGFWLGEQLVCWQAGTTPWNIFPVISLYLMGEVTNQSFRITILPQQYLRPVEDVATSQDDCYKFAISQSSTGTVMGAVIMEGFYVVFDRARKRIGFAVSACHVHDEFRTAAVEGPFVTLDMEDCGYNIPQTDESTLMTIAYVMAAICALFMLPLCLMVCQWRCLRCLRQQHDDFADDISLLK

For `CC(C)(C)Cc1cnc2c(c1)C(NCC(O)C(Cc1ccc(F)cc1)NC(=O)CF)CC1(CC(O)C1)O2` [compound 230, N-((1S,2R)-3-(((1s,3S,4′S)-6′-(2,2-dimethylpropyl)-3-hydroxy-3′,4′-dihydrospiro[cyclobutane-1,2′-pyrano[2,3-b]pyridin]-4′-yl)amino)-1-((4-fluorophenyl)methyl)-2-hydroxypropyl)-2-fluoroacetamide], the IC50 (usually the concentration at which inhibition is half-maximal) in assay [1] amounted to 4.24 nM; in assay [2] (setting [3]), 10 nM.
The like results for `CC(=O)NC(Cc1cccc(F)c1)C(O)CNC1CC2(CC(O)C2)Oc2ncc(CC(C)(C)C)cc21` [compound 231, N-((1S,2R)-3-(((1s,3S,4′S)-6′-(2,2-dimethylpropyl)-3-hydroxy-3′,4′-dihydrospiro[cyclobutane-1,2′-pyrano[2,3-b]pyridin]-4′-yl)amino)-1-((3-fluorophenyl)methyl)-2-hydroxypropyl)acetamide] were, in that order, 4.04 nM and 3.04 nM.
`COCC(=O)N[C@@H](Cc1cccc(F)c1)[C@H](O)CN[C@H]1C[C@]2(C[C@H](O)C2)Oc2ncc(CC(C)(C)C)cc21` [compound 232, N-((1S,2R)-3-(((1s,3S,4′S)-6′-(2,2-dimethylpropyl)-3-hydroxy-3′,4′-dihydrospiro[cyclobutane-1,2′-pyrano[2,3-b]pyridin]-4′-yl)amino)-1-((3-fluorophenyl)methyl)-2-hydroxypropyl)-2-(methyloxy)acetamide]: the half-inhibitory concentration (IC50) in assay [1] stood at 2.34 nM; in assay [2] (HEK cells), 3.27 nM.
As for `COCC(=O)NC(Cc1ccc(F)c(F)c1)C(O)CNC1CC2(CC(O)C2)Oc2ncc(CC(C)(C)C)cc21` [compound 233, N-((1S,2R)-1-((3,4-difluorophenyl)methyl)-3-(((1s,3S,4′S)-6′-(2,2-dimethylpropyl)-3-hydroxy-3′,4′-dihydrospiro[cyclobutane-1,2′-pyrano[2,3-b]pyridin]-4′-yl)amino)-2-hydroxypropyl)-2-(methyloxy)acetamide], the results for the IC50 in assay [1] and in assay [2] (setting [3]) were 7.24 nM and 7.33 nM, respectively.
In the same order, the values of `COCC(=O)NC(Cc1ccc(Cl)cc1)C(O)CNC1CC2(CC(O)C2)Oc2ncc(CC(C)(C)C)cc21` [compound 234, N-((1S,2R)-1-((4-chlorophenyl)methyl)-3-(((1s,3S,4′S)-6′-(2,2-dimethylpropyl)-3-hydroxy-3′,4′-dihydrospiro[cyclobutane-1,2′-pyrano[2,3-b]pyridin]-4′-yl)amino)-2-hydroxypropyl)-2-(methyloxy)acetamide] are 4.04 nM and 13.5 nM.
In the same order, the values of `COCC(=O)NC(Cc1cccc(F)c1)C(O)CNC1CC2(CC(O)C2)Oc2cnccc21` [compound 235, N-((1S,2R)-1-((3-fluorophenyl)methyl)-2-hydroxy-3-(((1s,3S,4′S)-3-hydroxy-3′,4′-dihydrospiro[cyclobutane-1,2′-pyrano[2,3-c]pyridin]-4′-yl)amino)propyl)-2-(methyloxy)acetamide] are 581 nM and 452 nM.
`COCC(=O)NC(Cc1cccc(F)c1)C(O)CNC1CC2(CC(O)C2)Oc2cnccc21` [compound 236, N-((1S,2R)-1-((3-fluorophenyl)methyl)-2-hydroxy-3-(((1r,3R,4′S)-3-hydroxy-3′,4′-dihydrospiro[cyclobutane-1,2′-pyrano[2,3-c]pyridin]-4′-yl)amino)propyl)-2-(methyloxy)acetamide]: the IC50 came to 5180 nM in assay [1] and 270 nM in assay [2] (HEK cells).
Regarding `CC(=O)NC(Cc1cccc(F)c1)C(O)CNC1CC2(CC(O)C2)Oc2cnccc21` [compound 237, N-((1S,2R)-1-((3-fluorophenyl)methyl)-2-hydroxy-3-(((1r,3R,4′S)-3-hydroxy-3′,4′-dihydrospiro[cyclobutane-1,2′-pyrano[2,3-c]pyridin]-4′-yl)amino)propyl)acetamide], the values for the IC50 in assay [1] and in assay [2] (setting [3]) were 6420 nM and 2450 nM, respectively.
The like results for `COCC(=O)NC(Cc1ccc2c(c1)OCO2)C(O)CNC1CC2(CC(C)C2)Oc2ncc(CC(C)(C)C)cc21` [compound 238, N-((1S,2R)-1-(1,3-benzodioxol-5-ylmethyl)-3-(((1s,3R,4′S)-6′-(2,2-dimethylpropyl)-3-methyl-3′,4′-dihydrospiro[cyclobutane-1,2′-pyrano[2,3-b]pyridin]-4′-yl)amino)-2-hydroxypropyl)-2-(methyloxy)acetamide] were, in that order, 18.4 nM and 32.7 nM.
In the same order, the values of `COC(C)C(=O)NC(Cc1ccc2c(c1)OCO2)C(O)CNC1CC2(CC(C)C2)Oc2ncc(CC(C)(C)C)cc21` [compound 239, (2R)—N-((1S,2R)-1-(1,3-benzodioxol-5-ylmethyl)-3-(((1s,3R,4′S)-6′-(2,2-dimethylpropyl)-3-methyl-3′,4′-dihydrospiro[cyclobutane-1,2′-pyrano[2,3-b]pyridin]-4′-yl)amino)-2-hydroxypropyl)-2-(methyloxy)propanamide] are 17.8 nM and 34.6 nM.
In the same order, the values of `COCC(=O)NC(Cc1ccc2c(c1)OCO2)C(O)CNC1CC2(CC(F)C2)Oc2ncc(CC(C)(C)C)cc21` [compound 240, N-((1S,2R)-1-(1,3-benzodioxol-5-ylmethyl)-3-(((1s,3S,4′S)-6′-(2,2-dimethylpropyl)-3-fluoro-3′,4′-dihydrospiro[cyclobutane-1,2′-pyrano[2,3-b]pyridin]-4′-yl)amino)-2-hydroxypropyl)-2-(methyloxy)acetamide] are 87 nM and 108 nM.
`COC(C)C(=O)NC(Cc1ccc2c(c1)OCO2)C(O)CNC1CC2(CC(F)C2)Oc2ncc(CC(C)(C)C)cc21` [compound 241, (2R)—N-((1S,2R)-1-(1,3-benzodioxol-5-ylmethyl)-3-(((1s,3S,4′S)-6′-(2,2-dimethylpropyl)-3-fluoro-3′,4′-dihydrospiro[cyclobutane-1,2′-pyrano[2,3-b]pyridin]-4′-yl)amino)-2-hydroxypropyl)-2-(methyloxy)propanamide]: the IC50 in assay [1] came out at 6.28 nM; in assay [2] (setting [3]) it was 33.6 nM.
In the same order, the values of `COCC(=O)NC(Cc1ccc2c(c1)OCO2)C(O)CNC1CC2(CC(O)C2)Oc2cnccc21` [compound 242, N-((1S,2R)-1-(1,3-benzodioxol-5-ylmethyl)-2-hydroxy-3-(((1s,3S,4′S)-3-hydroxy-3′,4′-dihydrospiro[cyclobutane-1,2′-pyrano[2,3-c]pyridin]-4′-yl)amino)propyl)-2-(methyloxy)acetamide] are 23900 nM and 1160 nM.
Take `COC(C)C(=O)NC(Cc1ccc2c(c1)OCO2)C(O)CNC1CC2(CC(O)C2)Oc2cnccc21` [compound 243, (2R)—N-((1S,2R)-1-(1,3-benzodioxol-5-ylmethyl)-2-hydroxy-3-(((1s,3S,4′S)-3-hydroxy-3′,4′-dihydrospiro[cyclobutane-1,2′-pyrano[2,3-c]pyridin]-4′-yl)amino)propyl)-2-(methyloxy)propanamide]: the results for the 50% inhibitory concentration (IC50) in assay [1] and in assay [2] (HEK cells) were 36100 nM and 3330 nM, respectively.
For the compound `COCC(=O)NC(Cc1ccc2c(c1)OCO2)C(O)CNC1CC2(CC(O)C2)Oc2ncc(CC(C)C)cc21` [compound 246, N-((1S,2R)-1-(1,3-benzodioxol-5-ylmethyl)-2-hydroxy-3-(((1s,3S,4′S)-3-hydroxy-6′-(2-methylpropyl)-3′,4′-dihydrospiro[cyclobutane-1,2′-pyrano[2,3-b]pyridin]-4′-yl)amino)propyl)-2-(methyloxy)acetamide], the IC50 in assay [1] is 13.5 nM; in assay [2] (setting [3]) it was 16.4 nM.

(Values after patent publication US8163909B2, “Substituted hydroxyethyl amine compounds as beta-secretase modulators and methods of use” (Amgen Inc., priority 2007, dated 2012).)
